Values after ≈ are worked out from the molar mass of the structure shown. Values joined by “and” are separate entries in the source; they are usually repeats but may differ in a detail not shown here. Identical values can stand only once.
Legend:
[1] = system: baseline pathogens of bacterial conjunctivitis patients; assay: MIC of baseline clinical trial isolates, Studies 373, 433, 434 (all species); format: cell-based
[2] = target: E. coli DNA gyrase (Escherichia coli, UniProt P0AES4+P0AES6); assay: Cleavable complex stimulation (CC25), DNA gyrase; format: biochemical; conditions: E. coli enzymes; concentration that produces 25% linearization of the DNA
[3] = system: genetically concordant pathogens of Visit 2 or Visit 3; assay: Resistance development: PFGE and MIC testing of concordant isolate pairs from baseline and follow-up visits; format: cell-based
Procedure: PFGE testing was performed per standard procedures.
Isolate pairs from eyes with the same species at or above threshold at both baseline and follow-up visits were evaluated by Pulsed Field Gel Electrophoresis (PFGE) analysis to (i) distinguish new infections from recurrence and (ii) determine if any microbial eradication failures were correlated with antimicrobial resistance development during the study period.

[4] = system: baseline bacterial conjunctival pathogens; assay: Integrated species-specific microbial eradication, Studies 373, 433, 434; format: in vivo, human; conditions: for Microbial eradication rate / Microbial eradication rate (eradicated/total): culture-confirmed, as-treated population (Global); for microbial eradication rate, all species combined: Studies 373, 433, 434 integrated, global (US and Asia)
[5] = Safety pharmacology: in vivo cardiovascular effects after systemic dosing
Text: The in vivo cardiovascular effects, specifically, an increase in QT duration, following besifloxacin systemic dosing were only observed after doses that were at least 300 times the intended ocular daily dose. There was no change in heart rate, blood pressure, or cardiac conduction.

[6] = system: bacterial conjunctivitis; assay: Study 433: besifloxacin ophthalmic suspension vs vehicle, TID 5 days; format: in vivo, human; conditions: N = 199; for Clinical Resolution (2 indices), No / Clinical Resolution (2 indices), Yes: mITT culture confirmed as randomized; for Microbial Eradication, No / Microbial Eradication, Yes: missing or discontinued imputed as no
[7] = system: S. pneumoniae topoisomerase mutants; assay: MIC against defined topoisomerase mutants; format: cell-based; conditions: Streptococcus pneumoniae
[8] = system: E. coli topoisomerase mutants; assay: MIC against defined topoisomerase mutants; format: cell-based; conditions: Escherichia coli
Procedure: Furthermore, an experiment was conducted to assess the mechanism of action of besifloxacin in S. pneumoniae, S. aureus, and E. coli via step selections for isolates with decreased susceptibility to besifloxacin, as well as by testing for altered susceptibilities of ciprofloxacin-resistant variants of all three species containing genetically defined mutations in the quinolone resistance determining regions (QRDRs) of structural genes encoding DNA gyrase and topoisomerase IV (Table 2).

[9] = 1324 clinical isolates of all species, Studies 373, 433, 434
[10] = Gram-negative bacteria (438 clinical isolates)
[11] = Gram-positive bacteria (886 clinical isolates)
[12] = C. pseudodiphtheriticum, Visit 2
[13] = C. pseudodiphtheriticum, Visit 3
[14] = CDC coryneform group G, Visit 2
[15] = CDC coryneform group G, Visit 3
[16] = S. mitis group (only isolates identified as S. mitis or S. mitis group), Visit 2
[17] = S. mitis group (only isolates identified as S. mitis or S. mitis group), Visit 3
[18] = Visit 2 (Day 5 ± 1), primary endpoint

With `N[C@@H]1CCCCN(c2c(F)cc3c(=O)c(C(=O)O)cn(C4CC4)c3c2Cl)C1` [Besifloxacin, (R)-(+)-(3-amino-2,3,4,5,6,7-hexahydro-1H-azepin-1-yl)-8-chloro-1-cyclopropyl-6-fluoro-1,4,-dihydro-4-oxo-3-quinolinecarboxylic acid] the MIC50 [1, 9] was 0.06 µg/mL, the MIC90 [1, 9] was 0.25 µg/mL and the MIC50 [1, 10] was 0.03 µg/mL. For the same compound, the MIC90 [1, 10] was 0.5 µg/mL, the MIC50 [1, 11] was 0.06 µg/mL and the MIC90 [1, 11] was 0.25 µg/mL. The MIC90 ([1]; clinical isolates from Asia) was 1 µg/mL, the “CC25 Gyrase” value [2] was 0.1 μM and 0.04 μg/mL and the “increase of MIC of Visit 2 or Visit 3 isolates versus baseline” value ([3]; Study 373, 47 genetically concordant isolate pairs) was ≤ 2 fold. For the same compound, the “increase of MIC of Visit 2 or Visit 3 isolates versus baseline” value ([3]; Study 433, 122 genetically concordant isolate pairs) was ≤ 2 fold, the “increase of MIC of Visit 2 or Visit 3 isolates versus baseline” value ([3]; Study 434, 65 genetically concordant isolate pairs) was ≤ 2 fold and the Microbial eradication rate ([4]; All species, Visit 2) was “(92.2%)”. The “Microbial eradication rate (eradicated/total)” value ([4]; All species, Visit 2) was 606/656, the Microbial eradication rate ([4]; All species, Visit 3) was “(88.4%)” and the “Microbial eradication rate (eradicated/total)” value ([4]; All species, Visit 3) was 580/656. For the same compound, the Microbial eradication rate [4, 12] was “(100.0%)”, the “Microbial eradication rate (eradicated/total)” value [4, 12] was 6/6 and the Microbial eradication rate [4, 13] was “(100.0%)”. The “Microbial eradication rate (eradicated/total)” value [4, 13] was 6/6, the Microbial eradication rate ([4]; C. striatum, Visit 2) was “(100.0%)” and the “Microbial eradication rate (eradicated/total)” value ([4]; C. striatum, Visit 2) was 5/5. The Microbial eradication rate ([4]; C. striatum, Visit 3) was “(100.0%)”, the “Microbial eradication rate (eradicated/total)” value ([4]; C. striatum, Visit 3) was 5/5 and the Microbial eradication rate [4, 14] was “(93.8%)”. For the same compound, the “Microbial eradication rate (eradicated/total)” value [4, 14] was 15/16, the Microbial eradication rate [4, 15] was “(93.8%)” and the “Microbial eradication rate (eradicated/total)” value [4, 15] was 15/16. The Microbial eradication rate ([4]; Gram-negative, Visit 2) was “(92.3%)”, the “Microbial eradication rate (eradicated/total)” value ([4]; Gram-negative, Visit 2) was 193/209 and the Microbial eradication rate ([4]; Gram-negative, Visit 3) was “(90.0%)”. The “Microbial eradication rate (eradicated/total)” value ([4]; Gram-negative, Visit 3) was 188/209, the Microbial eradication rate ([4]; Gram-positive, Visit 2) was “(92.2%)” and the “Microbial eradication rate (eradicated/total)” value ([4]; Gram-positive, Visit 2) was 412/447. For the same compound, the Microbial eradication rate ([4]; Gram-positive, Visit 3) was “(87.7%)”, the “Microbial eradication rate (eradicated/total)” value ([4]; Gram-positive, Visit 3) was 392/447 and the Microbial eradication rate ([4]; H. influenzae, Visit 2) was “(91.0%)”. The “Microbial eradication rate (eradicated/total)” value ([4]; H. influenzae, Visit 2) was 152/167, the Microbial eradication rate ([4]; H. influenzae, Visit 3) was “(88.6%)” and the “Microbial eradication rate (eradicated/total)” value ([4]; H. influenzae, Visit 3) was 148/167. The Microbial eradication rate ([4]; M. lacunata, Visit 2) was “(100.0%)”, the “Microbial eradication rate (eradicated/total)” value ([4]; M. lacunata, Visit 2) was 5/5 and the Microbial eradication rate ([4]; M. lacunata, Visit 3) was “(80.0%)”. For the same compound, the “Microbial eradication rate (eradicated/total)” value ([4]; M. lacunata, Visit 3) was 4/5, the Microbial eradication rate ([4]; S. aureus, Visit 2) was “(87.1%)” and the “Microbial eradication rate (eradicated/total)” value ([4]; S. aureus, Visit 2) was 81/93. For the same compound, the Microbial eradication rate ([4]; S. aureus, Visit 3) was “(83.9%)”, the “Microbial eradication rate (eradicated/total)” value ([4]; S. aureus, Visit 3) was 78/93 and the Microbial eradication rate ([4]; S. epidermidis, Visit 2) was “(94.0%)”. For the same compound, the “Microbial eradication rate (eradicated/total)” value ([4]; S. epidermidis, Visit 2) was 47/50, the Microbial eradication rate ([4]; S. epidermidis, Visit 3) was “(88.0%)” and the “Microbial eradication rate (eradicated/total)” value ([4]; S. epidermidis, Visit 3) was 44/50. The Microbial eradication rate ([4]; S. hominis, Visit 2) was “(83.3%)”, the “Microbial eradication rate (eradicated/total)” value ([4]; S. hominis, Visit 2) was 5/6 and the Microbial eradication rate ([4]; S. hominis, Visit 3) was “(100.0%)”. The “Microbial eradication rate (eradicated/total)” value ([4]; S. hominis, Visit 3) was 6/6, the Microbial eradication rate ([4]; S. lugdunensis, Visit 2) was “(100.0%)” and the “Microbial eradication rate (eradicated/total)” value ([4]; S. lugdunensis, Visit 2) was 5/5. For the same compound, the Microbial eradication rate ([4]; S. lugdunensis, Visit 3) was “(100.0%)”, the “Microbial eradication rate (eradicated/total)” value ([4]; S. lugdunensis, Visit 3) was 5/5 and the Microbial eradication rate [4, 16] was “(89.5%)”. For the same compound, the “Microbial eradication rate (eradicated/total)” value [4, 16] was 17/19, the Microbial eradication rate [4, 17] was “(84.2%)” and the “Microbial eradication rate (eradicated/total)” value [4, 17] was 16/19. The Microbial eradication rate ([4]; S. oralis, Visit 2) was “(90.9%)”, the “Microbial eradication rate (eradicated/total)” value ([4]; S. oralis, Visit 2) was 10/11 and the Microbial eradication rate ([4]; S. oralis, Visit 3) was “(72.7%)”. The “Microbial eradication rate (eradicated/total)” value ([4]; S. oralis, Visit 3) was 8/11, the Microbial eradication rate ([4]; S. pneumoniae, Visit 2) was “(92.8%)” and the “Microbial eradication rate (eradicated/total)” value ([4]; S. pneumoniae, Visit 2) was 142/153. The Microbial eradication rate ([4]; S. pneumoniae, Visit 3) was “(86.3%)”, the “Microbial eradication rate (eradicated/total)” value ([4]; S. pneumoniae, Visit 3) was 132/153 and the Microbial eradication rate ([4]; S. salivarius, Visit 2) was “(100.0%)”. The “Microbial eradication rate (eradicated/total)” value ([4]; S. salivarius, Visit 2) was 5/5, the Microbial eradication rate ([4]; S. salivarius, Visit 3) was “(80.0%)” and the “Microbial eradication rate (eradicated/total)” value ([4]; S. salivarius, Visit 3) was 4/5. For the same compound, the “microbial eradication rate, all species combined” value ([4]; Visit 2) was 92.2%, the “microbial eradication rate, all species combined” value ([4]; Visit 3) was 88.4% and the “dose at which an increase in QT duration was observed” value [5] was “at least 300 times the intended ocular daily dose”. The “heart rate, blood pressure, or cardiac conduction” value [5] was “no change”, the “Clinical Resolution (2 indices), No” value ([6]; Visit 2 (Day 5 ± 1)) was 109 (54.8) n (%) and the “Microbial Eradication, No” value ([6]; Visit 2 (Day 5 ± 1)) was 17 (8.5) n (%). The “Clinical Resolution (2 indices), Yes” value [6, 18] was 90 (45.2) n (%), the “Microbial Eradication, Yes” value [6, 18] was 182 (91.5) n (%) and the “Clinical Resolution (2 indices), No” value ([6]; Visit 3 (Day 8 or 9)) was 31 (15.6) n (%). The “Clinical Resolution (2 indices), Yes” value ([6]; Visit 3 (Day 8 or 9)) was 168 (84.4) n (%), the “Microbial Eradication, No” value ([6]; Visit 3 (Day 8 or 9)) was 23 (11.6) n (%) and the “Microbial Eradication, Yes” value ([6]; Visit 3 (Day 8 or 9)) was 176 (88.4) n (%). The MIC ([7]; S. pneumoniae Wild type) was 0.12 µg/mL (≈ 0.305 µM), the MIC ([7]; S. pneumoniae gyrA S81F) was 0.5 µg/mL (≈ 1.27 µM) and the MIC ([7]; S. pneumoniae parC S79Y) was 0.25 µg/mL (≈ 0.635 µM). For the same compound, the MIC ([7]; S. pneumoniae parC S79Y + gyrA S81F) was 1 µg/mL, the MIC ([8]; E. coli Wild type) was 0.12 µg/mL (≈ 0.305 µM) and the MIC ([8]; E. coli gyrA D87Y (or S83L)) was 0.5 µg/mL (≈ 1.27 µM). It also gave an MIC ([8]; E. coli gyrA S83L + parC S80R) of 16 µg/mL, an MIC ([8]; E. coli gyrA S83L + parE H445L) of 1 µg/mL and an MIC ([8]; E. coli gyrB D426N) of 0.5 µg/mL (≈ 1.27 µM).
